In patent EP4782449A1, “TRICYCLIC PYRIDINE COMPOUND ACTING AS SARM1 ENZYME ACTIVITY INHIBITOR, AND USE THEREOF” (Artivila (ShenZhen) Innovation Center, Ltd., priority 2023, dated 2025):

Experiments:
[1] = system: dorsal root ganglion explants; test: Axonal Wallerian degeneration assay in mouse DRG explant culture; format: cell-based, C57BL/6 male mice; settings: 10 µM test compound, 2 hours pretreatment, axons transected, images at 0 hour and 24 hours
From the text: The experimental method was based on Gerdts J et al. (Gerdts J, Sasaki Y, Vohra B, Marasa J, Milbrandt J. Image-based screening identifies novel roles for IkappaB kinase and glycogen synthase kinase 3 in axonal degeneration. J Biol Chem. 2011 Aug 12;286(32):28011-8).
Dorsal root ganglia were dissected from 2-month-old C57BL/6 male mice and placed in 35 mm culture dishes containing pre-cooled HBSS buffer. Excess tissue from each dorsal root ganglion was removed and cut into 2-3 explants using a scalpel, and the explants were planted in wells of a 96-well plate coated with 100 ng/mL Matrigel (Corning). 100 µL of DRG culture medium (Neurobasal medium (Gibco) containing 2% B-27 (Gibco), 1% GlutaMax (Gibco), and 10 ng/mL NGF (MCE)) was added, then cultured in a 37°C incubator for one week, with medium change on day 4, and experiments were performed on day 8.
0.1 µL of 10 mM test compound was dissolved in 100 µL DRG culture medium to prepare new culture medium containing 10 µM test compound. The culture medium in the 96-well plate was aspirated and new culture medium containing the test compound was added. Then the dorsal root ganglion explants were incubated with the medium in a 37°C incubator for 2 hours for pre-protection. After 2-hour pretreatment, a glass electrode was used to transect axons in the area near the tissue block, and bright-field images of axons in the same area were captured at 0 hour and 24 hours post axonal degeneration using a 20x objective lens of a microscope (Olympus). Axonal integrity was evaluated using an in-house developed script.

SARM1 = target: T1, SARM1 (Homo sapiens, UniProt Q6SZW1); test: In vitro biochemical assay for inhibiting SARM1 enzyme activity (PC6 fluorescence, NADase); settings: full-length SARM1 from transfected HEK293 cells; 50 µM NAD, 50 µM PC6, 50 µM NMN activator; room temperature, 30 minutes; read-out: IC50
T1 construct: inventors produced full-length SARM1 for NAD enzyme activity experiments, and used it for screening; His (C); made in house; host or cells: HEK293 cells, transient transfection; supernatant of digitonin lysate, no further purification described
T1 sequence (Q6SZW1 28-724): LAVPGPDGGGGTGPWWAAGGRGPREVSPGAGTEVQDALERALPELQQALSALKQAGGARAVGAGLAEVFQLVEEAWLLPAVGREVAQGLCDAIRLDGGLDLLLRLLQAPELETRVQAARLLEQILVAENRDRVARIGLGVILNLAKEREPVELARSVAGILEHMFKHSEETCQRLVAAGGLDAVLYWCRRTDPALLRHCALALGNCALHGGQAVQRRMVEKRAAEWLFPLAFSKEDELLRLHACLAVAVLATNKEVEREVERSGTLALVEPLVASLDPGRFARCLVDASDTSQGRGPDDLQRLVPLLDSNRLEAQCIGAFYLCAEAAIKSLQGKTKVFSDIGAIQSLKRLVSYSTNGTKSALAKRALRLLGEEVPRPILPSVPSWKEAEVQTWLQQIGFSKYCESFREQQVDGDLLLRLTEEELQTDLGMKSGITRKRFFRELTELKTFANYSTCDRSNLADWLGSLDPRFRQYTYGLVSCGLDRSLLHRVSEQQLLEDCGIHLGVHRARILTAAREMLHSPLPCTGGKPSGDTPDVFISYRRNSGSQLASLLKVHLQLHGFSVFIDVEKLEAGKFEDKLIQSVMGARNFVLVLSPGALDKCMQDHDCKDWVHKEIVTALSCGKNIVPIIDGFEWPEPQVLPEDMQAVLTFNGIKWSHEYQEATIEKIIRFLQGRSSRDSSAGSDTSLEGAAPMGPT
Protocol: The gene sequence of SARM1 protein was amplified using PCR, and the PCR amplification product was constructed into pcDNA3.1-HIS-C plasmid. The above construction was completed by YouBio(Hunan, China). HEK293 cells were cultured in 10 cm dishes using DMEM, and the cells were transfected with 15 μg pcDNA3.1-SARM[…]-C expression plasmid on the following day. Cells were collected 48 hours after transfection, and SARM1 protein expressed in the cells was obtained by digitonin lysis for in vitro activity assay experiments. The specific procedure was as follows: Cells were digested with trypsin-EDTA, then centrifuged at 1000 rpm for 5 minutes, washed once with PBS, and then resuspended in PBS containing 100 μM digitonin, with 0.6 mL PBS for the cells in per 10 cm dish, and lysed for 5 minutes. […] Then the supernatant containing SARM1 protein was collected by centrifugation at 5000 rpm for 10 minutes. […] A group without inhibitor was used as control group. All mixtures were incubated at room temperature for 10 minutes. Then, 50 μM NAD and 50 μM PC6 as substrates and 50 μM NMN as an activator were added to the SARM1 protein incubated with the inhibitor, and the reaction was carried out at room temperature for 30 minutes. The concentrations of each component were the final concentrations in the reaction system. […] Finally, the reaction rate was used to represent the protein activity and calculate the half-maximal inhibitory concentration.

SMILES	Degree of Protection Against Axonal Wallerian Degeneration [1]	IC50 (SARM1)
O=C1C(Cc2ccc(Cl)cc2)CCN1c1ccc2c(c1)COc1cnccc1-2 (stereo not drawn) [Compound 1, 3-(4-chlorobenzyl)-1-(6H-isochromeno[3,4-c]pyridin-8-yl)pyrrolidin-2-one]	A (substantial protection (A) >50%)	< 0.1 µM
O=C1C(Cc2ccccc2)CCN1c1ccc2c(c1)COc1cnccc1-2 (stereo not drawn) [Compound 2, 3-benzyl-1-(6H-isochromeno[3,4-c]pyridin-8-yl)pyrrolidin-2-one]	A (substantial protection (A) >50%)	0.1 to 1 µM
O=C1C(Cc2ccc(Cl)cc2F)CCN1c1ccc2c(c1)COc1cnccc1-2 (stereo not drawn) [Compound 3]	–	1 to 10 µM
O=C1C(Cc2cc(F)cc(F)c2)CCN1c1ccc2c(c1)COc1cnccc1-2 (stereo not drawn) [Compound 4]	A (substantial protection (A) >50%)	0.1 to 1 µM
O=C1C(Cc2cc(F)c(F)c(F)c2)CCN1c1ccc2c(c1)COc1cnccc1-2 (stereo not drawn) [Compound 5]	A (substantial protection (A) >50%)	1 to 10 µM
O=C1C(Cc2ccc(Cl)s2)CCN1c1ccc2c(c1)COc1cnccc1-2 (stereo not drawn) [Compound 7]	A (substantial protection (A) >50%)	1 to 10 µM
Cc1ccc(CC2CCN(c3ccc4c(c3)COc3cnccc3-4)C2=O)cc1 (stereo not drawn) [Compound 8]	–	1 to 10 µM
O=C1C(Cc2cccc(Cl)c2)CCN1c1ccc2c(c1)COc1cnccc1-2 (stereo not drawn) [Compound 9]	A (substantial protection (A) >50%)	1 to 10 µM
O=C1C(Cc2ccc(F)cc2)CCN1c1ccc2c(c1)COc1cnccc1-2 (stereo not drawn) [Compound 10, 3-(4-fluorobenzyl)-1-(6H-isochromeno[3,4-c]pyridin-8-yl)pyrrolidin-2-one]	A (substantial protection (A) >50%)	< 0.1 µM
O=C1C(Cc2ccc(F)cc2F)CCN1c1ccc2c(c1)COc1cnccc1-2 (stereo not drawn) [Compound 11]	A (substantial protection (A) >50%)	1 to 10 µM
O=C1C(Cc2ccc(Cl)o2)CCN1c1ccc2c(c1)COc1cnccc1-2 (stereo not drawn) [Compound 12]	B (partial protection (B): 20% to 50%)	0.1 to 1 µM
O=C1C(Cc2ccc(C(F)(F)F)cc2)CCN1c1ccc2c(c1)COc1cnccc1-2 (stereo not drawn) [Compound 14]	–	1 to 10 µM
N#Cc1ccc(CC2CCN(c3ccc4c(c3)COc3cnccc3-4)C2=O)cc1 (stereo not drawn) [Compound 16]	A (substantial protection (A) >50%)	1 to 10 µM
O=C1C(Cc2ccc(Cl)nc2)CCN1c1ccc2c(c1)COc1cnccc1-2 (stereo not drawn) [Compound 17]	B (partial protection (B): 20% to 50%)	0.1 to 1 µM
O=C1C(Cc2cc(F)c(Cl)c(F)c2)CCN1c1ccc2c(c1)COc1cnccc1-2 (stereo not drawn) [Compound 18]	B (partial protection (B): 20% to 50%)	1 to 10 µM
O=C(CCc1ccc2c(c1)OCO2)Nc1ccc2c(c1)COc1cnccc1-2 [Compound 20]	–	< 0.1 µM
O=C(CCc1ccc([N+](=O)[O-])cc1)Nc1ccc2c(c1)COc1cnccc1-2 [Compound 23]	–	1 to 10 µM
O=C(CCc1ccc(OC(F)(F)F)cc1)Nc1ccc2c(c1)COc1cnccc1-2 [Compound 24]	–	0.1 to 1 µM
O=C(CCc1ccc(Cl)nc1)Nc1ccc2c(c1)COc1cnccc1-2 [Compound 26]	–	< 0.1 µM
O=C(CCc1cccc(Cl)c1)Nc1ccc2c(c1)COc1cnccc1-2 [Compound 31]	–	< 0.1 µM
O=C(Nc1ccc2c(c1)COc1cnccc1-2)C(F)Cc1ccc(Cl)cc1 (stereo not drawn) [Compound 35]	–	0.1 to 1 µM
O=C(CCc1ccccc1)Nc1ccc2c(c1)COc1cnccc1-2 [Compound 38]	–	< 0.1 µM
O=C(CCc1cc(F)c(Cl)c(F)c1)Nc1ccc2c(c1)COc1cnccc1-2 [Compound 43]	–	< 0.1 µM

SMILES	Degree of Protection Against Axonal Wallerian Degeneration [1]	IC50 (SARM1)
N#Cc1c(F)cc(CCC(=O)Nc2ccc3c(c2)COc2cnccc2-3)cc1F [Compound 44]	–	< 0.1 µM
O=C(NCc1cc(F)cc(F)c1)Nc1ccc2c(c1)COc1cnccc1-2 [Compound 48]	–	0.1 to 1 µM
CN(C(=O)CCc1ccc(F)cc1)c1ccc2c(c1)COc1cnccc1-2 [Compound 49, 3-(4-fluorophenyl)-N-(6H-isochromeno[3,4-c]pyridin-8-yl)-N-methylpropanamide]	–	1 to 10 µM
O=C(Cc1ccc(F)cc1)Nc1ccc2c(c1)COc1cnccc1-2 [Compound 51]	–	1 to 10 µM
NC(Cc1ccc(F)cc1)C(=O)Nc1ccc2c(c1)COc1cnccc1-2 (stereo not drawn) [Compound 52, 2-amino-3-(4-fluorophenyl)-N-(6H-isochromeno[3,4-c]pyridin-8-yl)propanamide]	–	0.1 to 1 µM
O=C1C(Cc2ccc(F)cc2)CCN1c1ccc2c(c1)COCc1cnccc1-2 (stereo not drawn) [Compound 53, 1-(5,7-dihydrobenzo[5,6]oxepino[3,4-c]pyridin-9-yl)-3-(4-fluorobenzyl)pyrrolidin-2-one]	–	1 to 10 µM
O=C1C(Cc2ccc3ocnc3c2)CCN1c1ccc2c(c1)COc1cnccc1-2 (stereo not drawn) [Compound 61]	–	0.1 to 1 µM
O=C(NCc1ccc2c(c1)OCO2)Nc1ccc2c(c1)COc1cnccc1-2 [Compound 64]	–	1 to 10 µM
O=C(NCc1ccc(Cl)nc1)Nc1ccc2c(c1)COc1cnccc1-2 [Compound 66]	–	0.1 to 1 µM
O=C(NCc1cccc(Cl)c1)Nc1ccc2c(c1)COc1cnccc1-2 [Compound 69]	–	1 to 10 µM
CN(C)c1ccc(CCC(=O)Nc2ccc3c(c2)COc2cnccc2-3)cc1 [Compound 79]	–	1 to 10 µM
O=C(CCc1ccc2ccccc2c1)Nc1ccc2c(c1)COc1cnccc1-2 [Compound 81]	–	1 to 10 µM
O=C(CCc1cccc2ccccc12)Nc1ccc2c(c1)COc1cnccc1-2 [Compound 82]	–	1 to 10 µM
O=C(CCc1ccc2c(c1)CCO2)Nc1ccc2c(c1)COc1cnccc1-2 [Compound 83]	–	0.1 to 1 µM
Cc1c(NC(=O)CCc2ccc(F)cc2)ccc2c1COc1cnccc1-2 [Compound 131, 3-(4-fluorophenyl)-N-(7-methyl-6H-isochromeno[3,4-c]pyridin-8-yl)propanamide]	–	1 to 10 µM
CC(C)c1cncc2c1-c1ccc(NC(=O)CCc3ccc(F)cc3)cc1CO2 [Compound 141]	–	1 to 10 µM
C#Cc1ccc(CCC(=O)Nc2ccc3c(c2)COc2cnccc2-3)cc1 [Compound 148]	–	< 0.1 µM
C=Cc1ccc(CC2CCN(c3ccc4c(c3)COc3cnccc3-4)C2=O)cc1 (stereo not drawn) [Compound 149]	–	1 to 10 µM
O=C1N(Cc2ccc(F)cc2)CCN1c1ccc2c(c1)COc1cnccc1-2 [Compound 150]	–	< 0.1 µM
CN(Cc1ccc(F)cc1)C(=O)Nc1cnc2c(c1)COc1cnccc1-2 [Compound 153]	–	< 0.1 µM
O=C1[C@H](Cc2ccc(F)cc2)CCN1c1ccc2c(c1)COc1cnccc1-2 [Compound 154]	–	< 0.1 µM
O=C1[C@@H](Cc2ccc(F)cc2)CCN1c1ccc2c(c1)COc1cnccc1-2 [Compound 155]	–	< 0.1 µM
